The series in a line: Effect of alkalinizing agents on the pH of a solution of 0.1 N HCl with a starting pH of 2.0. The class given is physicochemical. The procedure:
Various alkalinizing agents were added to a solution of 0.1 N HCl with a starting pH of 2.0 and the pH of the solution was tested at different time points.

Structures are written as SMILES.

In turn, `CC(=O)[O-].[Na+]` [Sodium Acetate, sodium acetate] gave a pH (200 mg in 200 ml, 10 min) of 4.73; a pH (200 mg in 200 ml, 20 min) of 4.96; a pH (200 mg in 200 ml, 30 min) of 5.08; a pH (200 mg in 200 ml, 40 min) of 5.21; a pH (200 mg in 200 ml, 50 min) of 5.34; a pH (200 mg in 200 ml, 60 min) of 5.34.

For the molecule `O=C([O-])[O-].[Na+].[Na+]` [sodium carbonate], the pH is listed as 2.66 (11.13 mg/200 ml, 0 min); 2.80 (11.13 mg/200 ml, 1 min); 2.80 (11.13 mg/200 ml, 2 min); 2.80 (11.13 mg/200 ml, 3 min); 2.80 (11.13 mg/200 ml, 4 min); 2.80 (11.13 mg/200 ml, 5 min). Besides, the pH was determined as 2.80 (11.13 mg/200 ml, 10 min); 2.80 (11.13 mg/200 ml, 15 min); 2.80 (11.13 mg/200 ml, 20 min); 2.80 (11.13 mg/200 ml, 60 min); 2.57 (30.11 mg/200 ml, 0 min); 3.21 (30.11 mg/200 ml, 1 min). For the same molecule, the pH is reported as 3.24 (30.11 mg/200 ml, 2 min); 3.25 (30.11 mg/200 ml, 3 min); 3.25 (30.11 mg/200 ml, 4 min); 3.26 (30.11 mg/200 ml, 5 min); 3.27 (30.11 mg/200 ml, 10 min); 3.27 (30.11 mg/200 ml, 15 min). The pH amounted to 3.27 (30.11 mg/200 ml, 20 min); 3.27 (30.11 mg/200 ml, 60 min); 2.73 (81.68 mg/200 ml, 0 min); 9.02 (81.68 mg/200 ml, 1 min); 9 (81.68 mg/200 ml, 2 min); 8.97 (81.68 mg/200 ml, 3 min). For the same molecule, the pH reads like this: (81.68 mg/200 ml, 4 min) 8.95; (81.68 mg/200 ml, 5 min) 8.93; (81.68 mg/200 ml, 10 min) 8.83; (81.68 mg/200 ml, 15 min) 8.81; (81.68 mg/200 ml, 20 min) 8.5; (81.68 mg/200 ml, 60 min) 8.25. Further, the “effect on pH of the solution” value (81.68 mg in 200 ml) is recorded as “raise the pH of the 200 ml solution to above neutral”. Moreover, the “pH of the solution” value (all tested amounts, over the times tested) is over 2.0.

`CNC[C@H](O)[C@@H](O)[C@H](O)[C@H](O)CO` [Meglumine, meglumine]: the pH is, setting by setting: (120 mg in 200 ml, 10 min) 2.16; (120 mg in 200 ml, 20 min) 2.16; (120 mg in 200 ml, 30 min) 2.16; (120 mg in 200 ml, 40 min) 2.16; (120 mg in 200 ml, 50 min) 2.16; (120 mg in 200 ml, 60 min) 2.16.
